# Tested on: histamine induced paw oedema
# Test: Histamine induced paw oedema test (rat)
# Type: in vivo, rat (male Sprague-Dawley)
# Conditions: 1.0 mg/kg, intraperitoneally 15 minutes before the anaesthetics, paw swelling 20 minutes after histamine (50 microliter, 3 mg/ml)
# Description: Compounds of formula I may be used to treat all painful, hyperalgesic and/or inflammatory conditions in which C-fibres play a pathophysiological role by eliciting neurogenic pain or inflammation, i.e.:
# I. Histamine induced paw oedema
# The rat histamine paw oedema test was performed essentially as described by Amann et al. (Europ. J. Pharmacol. 279, 227-231, 1995). In brief 250-300 g male Sprague-Dawley rats were anaesthetized with pentobarbital sodium, and placed on a 32 degree (Celsius) heated table. Ten minutes later histamine (50 micoliter, 3 mg/ml) was injected in the right hind paw and 20 minutes hereafter the paw swelling was determined by water plethysmography (Ugo Basile). Test compounds were administered intraperitoneally at 15 minutes before the anaesthetics.
# Values for inhibition of histamine induced oedema response for some representative compounds are recorded in table 1.
structure (smiles),measurement,value
"Cl.Cl.O=C(O)c1cccnc1N1CCN(CCC=C2c3cc(Cl)ccc3OCOc3ccc(Cl)cc32)CC1 [Example 2, 2-(4-(3-(2,10-Dichloro-12H-dibenzo[d,g][1,3]dioxocin-12-ylidene)-1-propyl)-piperazin-1-yl)-3-pyridinecarboxylic acid dihydrochloride]",% Oedema inhibition,24%
"Cl.O=C(O)c1cccc(N2CCN(CCCN3c4ccccc4CCc4ccccc43)CC2)n1 [Example 8, 6-(4-(3-(10,11-Dihydro-5H-dibenz[b,f]azepin-5-yl)-1-propyl)-1-piperazinyl)-2-pyridinecarboxylic acid hydrochloride]",% Oedema inhibition,61%

# Source: US5916889A, “1,4-disubstituted piperazines” (Novo Nordisk A/S, priority 1996, dated 1999)
